Molecular target: alpha-glucosidase (Saccharomyces cerevisiae)
Assay: Inhibition of alpha-glucosidase (unknown origin) using p-nitrophenyl alpha-D-glucopyranoside as substrate preincubated for 15 mins followed by substrate addition measured after 30 mins by spectrophotometric method

| IC50 | SMILES |
| --- | --- |
| 50.45 µM | O=C1NC(=O)/C(=C/c2cc([N+](=O)[O-])ccc2OCN2C(=O)c3ccccc3C2=O)S1 |
| 7.72 µM | CCOc1cc(/C=C2\SC(=S)NC2=O)ccc1OCN1C(=O)c2ccccc2C1=O |
| > 100 µM | COc1cccc(/C=C2\SC(=S)NC2=O)c1OCN1C(=O)c2ccccc2C1=O |
| 35.79 µM | O=C1NC(=S)S/C1=C\c1cc([N+](=O)[O-])ccc1OCN1C(=O)c2ccccc2C1=O |
| 6.59 µM | O=C1NC(=S)S/C1=C\c1ccc(OCN2C(=O)c3ccccc3C2=O)c([N+](=O)[O-])c1 |
| > 100 µM | O=C1NC(=S)S/C1=C\c1ccccc1OCN1C(=O)c2ccccc2C1=O |
| 33.98 µM | O=C1NC(=S)S/C1=C\c1cccc(OCN2C(=O)c3ccccc3C2=O)c1 |
| 16.11 µM | COc1cc(/C=C2\SC(=S)NC2=O)ccc1OCN1C(=O)c2ccccc2C1=O |
| 20.95 µM | O=C1NC(=O)/C(=C/c2ccc(OCN3C(=O)c4ccccc4C3=O)c(Cl)c2)S1 |
| 34.82 µM | O=C1NC(=S)S/C1=C\c1cc(Cl)ccc1OCN1C(=O)c2ccccc2C1=O |
| 29.26 µM | CCOc1cc(/C=C2\SC(=O)NC2=O)ccc1OCN1C(=O)c2ccccc2C1=O |
| 7.91 µM | O=C1NC(=S)S/C1=C\c1ccc(OCN2C(=O)c3ccccc3C2=O)cc1 |
| > 100 µM | O=C1NC(=O)/C(=C/c2cc(Cl)ccc2OCN2C(=O)c3ccccc3C2=O)S1 |
| > 100 µM | O=C1NC(=O)/C(=C/c2ccccc2OCN2C(=O)c3ccccc3C2=O)S1 |
| 35.14 µM | COc1cc(/C=C2\SC(=O)NC2=O)ccc1OCN1C(=O)c2ccccc2C1=O |
| 39.81 µM | COc1cc(/C=C2\SC(=S)NC2=O)cc(OC)c1OCN1C(=O)c2ccccc2C1=O |
| > 100 µM | COc1cc(/C=C2\SC(=O)NC2=O)cc(OC)c1OCN1C(=O)c2ccccc2C1=O |
| 22.48 µM | O=C1NC(=O)/C(=C/c2ccc(OCN3C(=O)c4ccccc4C3=O)c([N+](=O)[O-])c2)S1 |
| 25.6 µM | O=C1NC(=O)/C(=C/c2ccc(OCN3C(=O)c4ccccc4C3=O)cc2)S1 |
| 5.44 µM | O=C1NC(=S)S/C1=C\c1ccc(OCN2C(=O)c3ccccc3C2=O)c(Cl)c1 |
| > 100 µM | COc1cccc(/C=C2\SC(=O)NC2=O)c1OCN1C(=O)c2ccccc2C1=O |
| > 100 µM | O=C1NC(=O)/C(=C/c2cccc(OCN3C(=O)c4ccccc4C3=O)c2)S1 |

Reference: ChEMBL document CHEMBL4261534, “Synthesis, α-glucosidase inhibition and molecular docking studies of novel thiazolidine-2,4-dione or rhodanine derivatives” (Medchemcomm, 2017)
